Here are results for two compounds from publication PMC5889410, “Design and Biological Evaluation of Antifouling Dihydrostilbene Oxime Hybrids” (Marine Biotechnology (New York, N.y.), 2018).

The structures appear in SMILES notation. ≈ marks a conversion by molar mass, not a printed value.

In data set [1] the test system is Balanus improvisus cyprid larvae. The note with it: B. improvisus larvae settlement; ref Ortlepp et al. [2007]; cited from earlier work.
Data set [2] relates to blue mussel phenoloxidase. Also noted: method as in Bayer et al. [2011]. The note with it: ref Bayer et al. [2011]; cited from earlier work.
In data set [3] the test system is marine bacteria. Nature of the data set: Bacterial adhesion assay, whole panel of ten strains. The class given is cell-based, 10 marine bacterial strains. The note with it: tested up to 10 μg/mL, active = MIC of 10 μg/mL or below. From the text:
(§1) Cyprid larvae of B. improvisus were reared in a laboratory cultivating system at Tjärnö Marine Biological Laboratory, University of Gothenburg, Sweden, as previously described by Berntsson et al. ([2000]). Four pure, but non-axenic, marine microalgae (obtained from Algobank, Caen, France) and 10 marine bacterial strains were used (Table 1) as representative microfoulers. These strains represent fouling species encountered in both estuarine and marine environments (Moodie et al. [2017b]). The bacteria were grown at 26 °C in a marine medium, composed of 0.5% peptone (neutralized bacteriological peptone, Oxoid Ltd.) in filtered (Whatman 1001–270, pore size 11 μm) natural seawater. Microalgae were grown and maintained at 22 °C in F/2 medium.
(§2) Bacterial strain adhesion and growth were determined according to the methods of Thabard et al. ([2011]). Bacterial suspensions (100-μL aliquots, 2 × 10^8 colony forming units/mL) were aseptically added to the compound containing microplate wells (10–0.01 μg/mL), and the plates were incubated for 48 h at 26 °C. Media only was used as a blank. Bacterial growth was monitored spectroscopically at 630 nm. The minimal inhibitory concentration (MIC) for bacterial growth was defined as the lowest concentration which results in a decrease in OD. After 48-h incubation time, the bacterial adhesion assay was conducted by emptying the wells and rinsing with sterile seawater (100 μL) to remove non-attached cells, and air-drying at room temperature. The residual bacterial biofilm was stained with aqueous crystal violet (100 μL, 0.3% v/v) and the OD measured at 595 nm (Sonak and Bhosle [1995]). […] If inhibition was observed, toxicity tests were conducted. The well contents were transferred into a flask of fresh media, and growth was measured after 5 days of additional incubation. The mode of action was deemed biostatic if an increase in OD was measured at 595 nm (Moodie et al. [2017a]).

The subject of data set [4] is Vibrio carchariae. Put plainly: Bacterial adhesion assay (crystal violet, OD 595 nm). The class given is cell-based. Conditions: Vibrio harveyi, 48 h, read-out: MIC against the adhesion of marine bacteria, V.c.
Description: as §1, §2

In data set [5] the test system is Vibrio aestuarianus. Described as above. The class given is cell-based. The note with it: 48 h, read-out: MIC against the adhesion of marine bacteria, V.a.
Description: as §1, §2

The subject of data set [6] is Halomonas aquamarina. The description is as above. The note with it: Vreelandella aquamarina, 48 h incubation, 10–0.01 μg/mL tested, read-out: MIC against the adhesion of marine bacteria, H.a. The class given is cell-based.
Description: as §1, §2

Data set [7] relates to Vibrio harveyi. The description is as above. The note with it: 48 h, read-out: MIC against the adhesion of marine bacteria, V.h. The class given is cell-based.
Description: as §1, §2

The subject of data set [8] is Balanus improvisus cyprid larvae. Nature of the data set: whole plant or invertebrate. The class given is in vivo.
Description: as §1
Stock solutions of compounds in DMSO were serially diluted in untreated polystyrene Petri dishes containing 10 mL of filtered (0.2 μm) seawater, affording final concentrations ranging from 0.1 to 10 μg/mL. Freshly molted balanide cyprids (18–22) were added to each Petri dish and incubated at ambient temperature (20–25 °C) for 5 days. Cyprid metamorphosis was assessed using a dissecting microscope where the numbers of juvenile settled, free-swimming, and dead cyprids were noted. Initial compound screening was conducted at 5 μg/mL, and full IC50 determination was performed only on compounds displaying > 50% inhibition at that concentration. The IC50 was defined as the concentration preventing 50% of the cyprid settlement on the Petri dish surface. Each concentration was replicated four times (n = 4), and dishes containing 0.1% of DMSO were used as negative controls. The commercial AF agent Sea-nine™ was employed as a positive control.

Data set [9] has as its system Halamphora coffeaeformis. Nature of the data set: Microalgal growth assay (chlorophyll a). The note with it: Halamphora coffeiformis, 120 h, 5 days incubation, 10–0.01 μg/mL tested, read-out: MIC against the growth (G) of microalgae, H. coffeaformis. The class given is cell-based.
Description: as §1
(§3) Microplates containing the compounds in ranging concentrations (10–0.01 μg/mL) were prepared from MeOH stock solutions as previously described (Trepos et al. [2014]; Moodie et al. [2017a]). Microalgal stock solutions were prepared using the chlorophyll analysis methodology of Chambers et al. ([2011]). The pretreated microplate wells were treated with 100 μL of the algal stock solutions (0.1 mg chlorophyll a/mL). The plates were then incubated for 5 days at 20 °C under constant light exposure (140 μmol m^−2 s^−1). Both microalgal adhesion and growth inhibition were measured. Growth was determined by analysis of liberated chlorophyll a after centrifugation and methanol addition. Chlorophyll a was quantified fluorometrically. MIC value for algal growth was defined as the lowest concentration yielding a decrease in chlorophyll a content. Microalgal adhesion was determined in an analogous manner where the non-attached algal cells were removed prior to methanol addition (100 μL), releasing chlorophyll a from the remaining algal biofilms. The MIC for adhesion was defined as the lowest compound concentration causing a reduction in […]. Toxicity experiments were performed in an analogous manner to those described for the bacterial assays.

The test system of data set [10] is Porphyridium purpureum. Nature of the data set: Microalgal growth assay (chlorophyll a). The class given is cell-based. Conditions: 120 h, 5 days incubation, 10–0.01 μg/mL tested, read-out: MIC against the growth (G) of microalgae, P. purpureum.
Description: as §1, §3

Data set [11] concerns Pleurochrysis roscoffensis. Put plainly: Microalgal growth assay (chlorophyll a). The note with it: Chrysotila roscoffensis, 120 h, 5 days incubation, 10–0.01 μg/mL tested, read-out: MIC against the growth (G) of microalgae, P. roscoffensis. The class given is cell-based.
Description: as §1, §3

Data set [12] concerns Cylindrotheca closterium. Nature of the data set: Microalgal growth assay (chlorophyll a). The class given is cell-based. The note with it: 120 h, 5 days incubation, 10–0.01 μg/mL tested, read-out: MIC against the growth (G) of microalgae, C. closterium.
Description: as §1, §3

Data set [13] relates to Roseobacter litoralis. Nature of the data set: Bacterial growth assay (OD 630 nm). The class given is cell-based. The note with it: 48 h incubation, 10–0.01 μg/mL tested, read-out: MIC against the growth of marine bacteria, R.l.
Description: as §1, §2

Data set [14] concerns Vibrio proteolyticus. Nature of the data set: Bacterial growth assay (OD 630 nm). The class given is cell-based. Conditions: 48 h incubation, 10–0.01 μg/mL tested, read-out: MIC against the growth of marine bacteria, V.p.
Description: as §1, §2

Data set [15] relates to Vibrio carchariae. Put plainly: Bacterial growth assay (OD 630 nm). The class given is cell-based. Conditions: Vibrio harveyi, 48 h incubation, 10–0.01 μg/mL tested, read-out: MIC against the growth of marine bacteria, V.c.
Description: as §1, §2

For data set [16], the system named is Pseudoalteromonas elyakovii. Nature of the data set: Bacterial growth assay (OD 630 nm). The class given is cell-based. The note with it: 48 h incubation, 10–0.01 μg/mL tested, read-out: MIC against the growth of marine bacteria, P.e.
Description: as §1, §2

Data set [17] deals with Shewanella putrefaciens. Nature of the data set: Bacterial growth assay (OD 630 nm). The class given is cell-based. Conditions: 48 h incubation, 10–0.01 μg/mL tested, read-out: MIC against the growth of marine bacteria, S.p.
Description: as §1, §2

The test system of data set [18] is Vibrio natriegens. Put plainly: Bacterial growth assay (OD 630 nm). The class given is cell-based. The note with it: 48 h incubation, 10–0.01 μg/mL tested, read-out: MIC against the growth of marine bacteria, V.n.
Description: as §1, §2

Data set [19] concerns Vibrio aestuarianus. Nature of the data set: Bacterial growth assay (OD 630 nm). The class given is cell-based. Conditions: 48 h incubation, 10–0.01 μg/mL tested, read-out: MIC against the growth of marine bacteria, V.a.
Description: as §1, §2

Data set [20] relates to Halomonas aquamarina. Nature of the data set: Bacterial growth assay (OD 630 nm). The note with it: Vreelandella aquamarina, 48 h incubation, 10–0.01 μg/mL tested, read-out: MIC against the growth of marine bacteria, H.a. The class given is cell-based.
Description: as §1, §2

Data set [21] deals with Vibrio harveyi. Nature of the data set: Bacterial growth assay (OD 630 nm). Conditions: 48 h incubation, 10–0.01 μg/mL tested, read-out: MIC against the growth of marine bacteria, V.h. The class given is cell-based.
Description: as §1, §2

As to `O=C(NCCc1ccc(O)cc1)C(Cc1ccc(O)cc1)=NO` [Compound 4, debromohemibastadin-1], the “minimum significant dose to inhibit settlement” value in [1] is 100 µM. Besides, the “inhibition of phenoloxidase, in words” value in data set [2] is “inhibit”.

In general, MIC refers to the smallest concentration in the dilution series that meets the test's criterion for growth inhibition. In general, IC50 refers to the midpoint of a concentration-inhibition curve. In the case of `COc1cc(CC(=NO)c2ccc(OC)c(OC)c2)ccc1O` [Compound 14, 1-(3,4-dimethoxyphenyl)-1-hydroxyimino-2-(3’-methoxy-4’-hydroxyphenyl)-ethane], the “MIC / activity against the adhesion of all bacteria tested” value in [3] is on record as “displayed inhibitory activities”. Also, the MIC in [4] is 10 µg/mL (≈ 31.5 µM); in data set [5], 10 µg/mL (≈ 31.5 µM); in data set [6], 10 µg/mL (≈ 31.5 µM); in [7], 10 µg/mL (≈ 31.5 µM); in data set [9] it was 10 µg/mL (≈ 31.5 µM); in [10], > 10 µg/mL. For the same compound, the MIC in [11] was 10 µg/mL (≈ 31.5 µM); in data set [12] it was 10 µg/mL (≈ 31.5 µM); in [13], > 10 µg/mL; in data set [14], > 10 µg/mL; in [15], > 10 µg/mL; in [16], > 10 µg/mL. For the same compound, the MIC in data set [17] is 10 µg/mL (≈ 31.5 µM); in data set [18] it was > 10 µg/mL; in data set [19], > 10 µg/mL; in data set [20] it was > 10 µg/mL; in [21], > 10 µg/mL. The IC50 in data set [8] (Amphibalanus improvisus, 120 h, read-out: IC50 (cyprid settlement inhibition)) was determined as 1 µg/mL (≈ 3.15 µM). Also, the “Toxicity (%) (dead cyprids)” value in data set [8] (Balanus improvisus, in vivo, 5 days, 5 μg/mL) stood at 4.8%.
